Values joined by “and” are separate entries in the source; they are usually repeats but may differ in a detail not shown here. Equal entries are not always repeated. Marks after values point to notes of the source that are not given here.
Tested on: 5α-reductase
Test: In vitro evaluation of 5α-reductase activity: conversion of testosterone to 5α-dihydrotestosterone in normal human dermal fibroblast cultures
Type: cell-based
Settings: finasteride 30 ng/ml
Excerpt: In vitro evaluation of the 5α-reductase activity of the balsam pear oil on the conversion of testosterone to 5α-dihydrotestosterone in normal human dermal fibroblast cultures
It is proposed to evaluate the effect of the solid oil (butter) extracted from seeds of balsam pear (Momordica charantia), extracted with solvent (hexane), on 5α-reductase activity. An in vitro model of normal human dermal fibroblast cultures was selected.
The balsam pear oil was provided by the Laboratoires Pharmascience and was stored at +4° C. until the time it was used. The effects of the test product were compared with those obtained in the presence of finasteride, used as reference product (finasteride, principle active agent of the tablets CHIBRO-PROSCAR: MERCK SHARP & DOHME CHIBRET).
The radioactive testosterone (labeled with tritium at positions 1, 2, 6 and 7, specific activity 95 Ci/mmol) was provided by AMERSHAM, the nonradiolabeled testosterone was provided by SIGMA.
The fibroblast culture medium (FCM) consisted of MEM/M199 (3:1, v/v) supplemented with penicillin (50 IU/ml), streptomycin ([…]), sodium bicarbonate (0.2%, w/v) and FCS (10%, v/v).
The test system consisted of normal human dermal fibroblasts cultured in monolayer. The fibroblasts were isolated from a residue of an abdominoplasty carried out on a person (subject No. i0006). The cells were used at the third passage; they were cultured, until the monolayers reached confluency, in the FCM medium at 37° C. in a humid atmosphere containing 5% CO2.
The fibroblast incubation medium (FIM) consisted of FCM supplemented with tritiated testosterone (1.6×10^−7 M, i.e. 6.32 μCi/ml) and nonradiolabeled testosterone (3.84×10^−6 M).
The finasteride was extracted from the tablets by grinding, stirring in DMSO, centrifugation, and then collection of the supernatant (theoretical concentration of this solution: 1 mg/ml of finasteride), which was tested at 30 ng/ml. […]
The migration solvent was a mixture of dichloromethane and ether (7:3, v/v). At the end of migration, the silica plates were read using a BERTHOLD radioactivity scanner.
Comparison of the Rf (relative retention factor) values determined for the standards with those obtained for the various radioactive metabolites made it possible to identify these metabolites.
The metabolization of the testosterone to 5α-dihydro-testosterone under the various experimental conditions was calculated; the results (areas of the 5α-dihydro-testosterone peaks counted by the BERTHOLD scanner) are expressed in pmol of 5α-DHT formed per […]. They have also been expressed as percentage of the 5α-reductase activity present in the “control cells” group. […]

CC(C)(C)NC(=O)[C@H]1CC[C@H]2[C@@H]3CC[C@H]4NC(=O)C=C[C@]4(C)[C@H]3CC[C@]12C [Finasteride, finasteride]
pmol of 5α-DHT/μg of DNA (individual cultures) (2 h preincubation, 24 h incubation, triplicate values, control cells 2.68, 1.91, 1.56): 0.76 pmol of 5α-DHT/μg of DNA and 0.48 pmol of 5α-DHT/μg of DNA and 0.62 pmol of 5α-DHT/μg of DNA
% control (5α-reductase activity) (24 h incubation, control cells = 100): 30%
pmol of 5α-DHT/μg of DNA, Mean (24 h incubation, control cells mean 2.05, p<0.05 vs control): 0.62** pmol of 5α-DHT/μg of DNA
inhibition of the 5α-reductase activity (p<0.05): 70%
